Results: ChEMBL document CHEMBL1909046, “DrugMatrix in vitro pharmacology data”

Experiments:
[1] = molecular target: T1, Alpha-1B adrenergic receptor (Rattus norvegicus, UniProt P15823); experiment: DRUGMATRIX: Alpha-1B adrenergic receptor radioligand binding (ligand: prazosin); format: cell membranes, Wistar, Liver, Membrane; settings: Not Active = under 50% inhibition at 10 µM
T1 sequence (P15823 whole entry): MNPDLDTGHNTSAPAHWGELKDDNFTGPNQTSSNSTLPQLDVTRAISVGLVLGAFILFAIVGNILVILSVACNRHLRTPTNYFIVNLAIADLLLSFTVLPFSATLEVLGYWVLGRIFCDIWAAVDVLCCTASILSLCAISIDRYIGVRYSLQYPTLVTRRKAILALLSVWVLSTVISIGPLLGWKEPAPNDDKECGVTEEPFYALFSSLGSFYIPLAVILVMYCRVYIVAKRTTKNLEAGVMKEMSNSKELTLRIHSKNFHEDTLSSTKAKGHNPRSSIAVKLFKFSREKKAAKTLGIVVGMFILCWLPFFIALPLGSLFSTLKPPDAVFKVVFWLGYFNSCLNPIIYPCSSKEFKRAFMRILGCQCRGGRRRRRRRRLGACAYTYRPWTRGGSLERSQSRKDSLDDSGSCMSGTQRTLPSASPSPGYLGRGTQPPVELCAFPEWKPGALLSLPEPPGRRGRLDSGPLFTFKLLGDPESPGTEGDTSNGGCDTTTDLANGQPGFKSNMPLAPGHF

[2] = molecular target: Beta-2 adrenergic receptor (Homo sapiens, UniProt P07550); experiment: DRUGMATRIX: Adrenergic beta2 radioligand binding (ligand: [3H] CGP-12177); format: cell membranes, CHO, Membrane; settings: cho; Not Active = under 50% inhibition at 10 µM
[3] = DRUGMATRIX: Calcium Channel Type L, Benzothiazepine radioligand binding (ligand: [3H] Diltiazem); format: cell membranes, Rattus norvegicus, Wistar, Brain, Membrane; settings: Not Active = under 50% inhibition at 10 µM
[4] = molecular target: 5-hydroxytryptamine receptor 6 (Homo sapiens, UniProt P50406); format: cell membranes, HeLa, Membrane; settings: hela; also: in other assays of this panel Not Active means under 50% inhibition at 10 µM
Chain of 5-hydroxytryptamine receptor 6 (P50406 whole entry): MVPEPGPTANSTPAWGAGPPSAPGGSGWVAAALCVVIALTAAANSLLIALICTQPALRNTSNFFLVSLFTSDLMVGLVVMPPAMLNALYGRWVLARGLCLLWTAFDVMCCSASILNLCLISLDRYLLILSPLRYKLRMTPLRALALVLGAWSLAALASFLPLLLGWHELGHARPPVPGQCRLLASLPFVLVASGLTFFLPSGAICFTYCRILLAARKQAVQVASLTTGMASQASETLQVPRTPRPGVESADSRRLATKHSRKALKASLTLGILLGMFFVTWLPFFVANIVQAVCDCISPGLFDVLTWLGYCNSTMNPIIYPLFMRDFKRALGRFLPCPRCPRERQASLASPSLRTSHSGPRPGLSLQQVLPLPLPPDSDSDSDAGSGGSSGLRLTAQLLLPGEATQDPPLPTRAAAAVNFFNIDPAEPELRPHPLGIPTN

[5] = molecular target: T2, Muscarinic acetylcholine receptor M2 (Homo sapiens, UniProt P08172); format: cell membranes, CHO-K1, Membrane; settings: cho-k1; also: in other assays of this panel Not Active means under 50% inhibition at 10 µM
T2 sequence (P08172 whole entry): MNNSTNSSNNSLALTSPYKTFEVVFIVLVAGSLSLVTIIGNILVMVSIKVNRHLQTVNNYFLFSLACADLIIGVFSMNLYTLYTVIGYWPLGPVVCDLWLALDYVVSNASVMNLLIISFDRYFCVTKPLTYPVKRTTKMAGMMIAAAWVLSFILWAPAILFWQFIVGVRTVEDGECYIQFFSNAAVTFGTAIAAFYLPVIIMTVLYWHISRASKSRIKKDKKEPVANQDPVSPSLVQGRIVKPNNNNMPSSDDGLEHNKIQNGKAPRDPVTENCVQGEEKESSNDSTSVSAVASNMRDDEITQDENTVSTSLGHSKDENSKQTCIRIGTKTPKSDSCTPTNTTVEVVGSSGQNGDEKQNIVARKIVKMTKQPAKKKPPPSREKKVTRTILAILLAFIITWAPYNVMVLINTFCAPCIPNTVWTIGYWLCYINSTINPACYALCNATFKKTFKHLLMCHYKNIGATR

[6] = molecular target: Protein phosphatase 3 catalytic subunit alpha (Homo sapiens, UniProt Q08209); parameters: species or system Escherichia coli;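 also: inhibition of calcineurin (PP2B) enzyme activity, measured with DiFMUP as the substrate; in other assays of this panel Not Active means under 50% inhibition at 10 µM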

POVIDONE
Not Active: IC50 [1] | Ki [1] | IC50 [2] | Ki [2] | IC50 [3] | Ki [3] | IC50 [4] | Ki [4] | IC50 [5] | Ki [5] | IC50 [6] | Ki [6]

CN(Cc1cc(Br)cc(Br)c1N)C1CCCCC1 [BROMHEXINE]
Not Active: IC50 [1] | IC50 [2] | IC50 [3] | Ki [3] | IC50 [4] | IC50 [5] | IC50 [6]

Cc1ccnc2c1NC(=O)c1cccnc1N2C1CC1 [NEVIRAPINE]
Not Active: IC50 [1] | IC50 [2] | IC50 [3] | Ki [3] | IC50 [4] | IC50 [5] | IC50 [6]

CCN1CCN(C(=O)N[C@@H](C(=O)N[C@@H]2C(=O)N3[C@@H]2SC(C)(C)[C@@H]3C(=O)O)c2ccccc2)C(=O)C1=O [PIPERACILLIN]
Not Active: IC50 [1] | IC50 [2] | IC50 [3] | Ki [3] | IC50 [4] | IC50 [5] | IC50 [6]

O=C(O)c1ccccc1 [BENZOIC ACID]
Not Active: IC50 [1] | IC50 [2] | IC50 [3] | Ki [3] | IC50 [4] | IC50 [5] | IC50 [6]

CC[C@H]1OC(=O)[C@H](C)[C@@H](O[C@H]2C[C@@](C)(OC)[C@@H](O)[C@H](C)O2)[C@H](C)[C@@H](O[C@@H]2O[C@H](C)C[C@H](N(C)C)[C@H]2O)[C@](C)(O)C[C@@H](C)C(=O)[C@H](C)[C@@H](O)[C@]1(C)O [ERYTHROMYCIN]
Not Active: IC50 [1] | IC50 [2] | IC50 [3] | Ki [3] | IC50 [4] | IC50 [5] | IC50 [6]

c1ccc2c(c1)Nc1ccccc1S2 [PHENOTHIAZINE]
Not Active: IC50 [1] | IC50 [2] | IC50 [3] | Ki [3] | IC50 [4] | IC50 [5] | IC50 [6]

CHROMIC CHLORIDE
Not Active: IC50 [1] | Ki [1] | IC50 [2] | Ki [2] | IC50 [3] | Ki [3] | IC50 [4] | Ki [4] | IC50 [5] | Ki [5] | IC50 [6] | Ki [6]

Cl.NC[C@H]1CC[C@H](C(=O)Oc2ccc(CCC(=O)O)cc2)CC1 [CETRAXATE HYDROCHLORIDE]
Not Active: IC50 [1] | IC50 [2] | IC50 [3] | Ki [3] | IC50 [4] | IC50 [5] | IC50 [6]

O=c1[nH]c2ccccc2c2ccccc12
Not Active: IC50 [1] | IC50 [2] | IC50 [3] | Ki [3] | IC50 [4] | IC50 [5] | IC50 [6]

C[C@H](C(=O)O)c1ccc2oc(-c3ccc(F)cc3)nc2c1 [FLUNOXAPROFEN]
Not Active: IC50 [1] | IC50 [2] | IC50 [3] | Ki [3] | IC50 [4] | IC50 [5] | IC50 [6]

O=C(O)CNCP(=O)(O)O [GLYPHOSATE]
Not Active: IC50 [1] | IC50 [2] | IC50 [3] | Ki [3] | IC50 [4] | IC50 [5] | IC50 [6]

C[N+](C)(C)CCOC(N)=O.[Cl-] [CARBACHOL]
Not Active: IC50 [1] | IC50 [2] | IC50 [3] | Ki [3] | IC50 [4] | IC50 [5] | IC50 [6]

O=C(O)CCc1nc(-c2ccccc2)c(-c2ccccc2)o1 [OXAPROZIN]
Not Active: IC50 [1] | IC50 [2] | IC50 [3] | Ki [3] | IC50 [4] | IC50 [5] | IC50 [6]

CC(=O)[C@]1(O)Cc2c(O)c3c(c(O)c2[C@@H](O[C@H]2C[C@H](N)[C@H](O)[C@H](C)O2)C1)C(=O)c1ccccc1C3=O [IDARUBICIN]
Not Active: IC50 [1] | IC50 [2] | IC50 [3] | Ki [3] | IC50 [4] | IC50 [5] | IC50 [6]
